These are literature values, as cited in US20250059333A1, “BILAYER BIONIC DRUG-LOADED HYDROGEL, AND PREPARATION AND APPLICATION THEREOF” (Chengdu Hengkui Biotechnology Co., Ltd., priority 2022, published 2025).

The conditions of the data set: relative to glutaraldehyde, a commonly used chemical cross-linking agent.

Structures are written as SMILES.

In the case of `COC(=O)C1=CO[C@@H](O)[C@@H]2C(CO)=CC[C@H]12` [genipin], the “toxicity lower than that of glutaraldehyde” value is on record as 10000 times.
